What was measured:
KB cells = settings: human
[1] = Enzymatic stability in rat intestinal homogenate pH 6.5 at 37 °C; settings: Sprague-Dawley, pH 6.5, Half-lives, rat intestinal homogenate pH 6.5, 37 °C
in vitro = settings: human
[2] = in vivo murine model; relative to 2 or its cyclic form 4; cited from earlier work
[3] = parent (S)-HPMPA; cited from earlier work
[4] = test system: Vaccinia virus strain Copenhagen; experiment: microbe, parasite or virus in culture; format: cell-based; settings: Orthopoxvirus vaccinia, read-out: Antiviral Activity IC50 Vaccinia
Towne strain of HCMV = experiment: microbe, parasite or virus in culture; format: cell-based, human cytomegalovirus; settings: Human betaherpesvirus 5, read-out: Antiviral Activity IC50 HCMV
hPEPT1 = hPEPT1 expressed in the model system; cited from earlier work
[5] = t1/2 Intestinal Homogenate pH 6.5, Rp isomer
[6] = t1/2 Intestinal Homogenate pH 6.5, Sp isomer

SMILES	half-life at 0.5 mg/ml [1, 5] [h]	half-life at 0.5 mg/ml [1, 6] [h]	IC50 (in vitro) [µM]	other results
CC(C)OC(=O)[C@@H](N)Cc1ccc(OP2(=O)CO[C@@H](Cn3ccc(N)nc3=O)CO2)cc1 (mixture of isomers) [8´, Isopropyl O-[(5S)-5-[(4-amino-2-oxopyrimidin-1(2H)-yl)methyl]-2-oxido-1,4,2-dioxaphosphinan-2-yl]-(L)-tyrosinate]				IC50 (KB cells): > 100 µM
CC(C)CNC(=O)[C@@H](N)Cc1ccc(OP2(=O)CO[C@@H](Cn3cnc4c(N)ncnc43)CO2)cc1 (mixture of isomers) [11´, O-[(5S)-5-[(6-Amino-9H-purin-9-yl)methyl]-2-oxido-1,4,2-dioxaphosphinan-2-yl]-N-(2-methylpropyl)-(L)-tyrosinamide]				IC50 (KB cells): > 100 µM
CC(C)OC(=O)[C@@H](N)Cc1ccc(OP2(=O)CO[C@@H](Cn3ccc(N)nc3=O)CO2)cc1 (mixture of isomers) [Compound 8, Isopropyl O-[(5S)-5-[(4-amino-2-oxopyrimidin-1(2H)-yl)methyl]-2-oxido-1,4,2-dioxaphosphinan-2-yl]-(L)-tyrosinate]	< 0.5	< 0.5	> 100	
CC(C)CNC(=O)[C@@H](N)Cc1ccc(OP2(=O)CO[C@@H](Cn3cnc4c(N)ncnc43)CO2)cc1 (mixture of isomers) [Compound 11, O-[(5S)-5-[(6-Amino-9H-purin-9-yl)methyl]-2-oxido-1,4,2-dioxaphosphinan-2-yl]-N-(2-methylpropyl)-(L)-tyrosinamide]	12.8	1.9	> 100	half-life (Stability in rat plasma; Rp diastereomer): 3.55 h; half-life (Stability in rat plasma; Sp diastereomer): 0.383 h
COC(=O)C(COP1(=O)COC(Cn2ccc(N)nc2=O)CO1)NC(=O)C(N)C(C)C (stereo not drawn) [(L)-Val-(L)-Ser-OMe cHPMPC]				increase in oral bioavailability of total 2 species [2]: eight-fold
Nc1ncnc2c1ncn2C[C@@H](CO)OCP(=O)(O)O [Compound 1, (S)-9-[3-hydroxy-2-(phosphonomethoxy)propyl]adenine, reference compound]			> 100	oral bioavailability of the parent compound [3]: < 5%
Nc1ccn(C[C@@H](CO)OCP(=O)(O)O)c(=O)n1 [Compound 2, 1-(S)-[3-hydroxy-2-(phosphonomethoxy)propyl]cytosine, reference compound]			> 100	IC50 [4]: 20 µM
Nc1ncnc2c1ncn2C[C@H]1COP(=O)(O)CO1 [Compound 3, (5S)-5-[(6-Amino-9H-purin-9-yl)methyl]-1,4,2-dioxaphosphinan-2-ol 2-oxide, reference compound]			> 100	
Nc1ccn(C[C@H]2COP(=O)(O)CO2)c(=O)n1 [Compound 4]			> 100	IC50 (Towne strain of HCMV): 0.25 µM; IC50 [4]: 40 µM
COC(=O)[C@@H](N)Cc1ccc(OP2(=O)CO[C@@H](Cn3ccc(N)nc3=O)CO2)cc1 (stereo partly drawn) [Compound 6, Methyl O-[(5S)-5-[(4-amino-2-oxopyrimidin-1(2H)-yl)methyl]-2-oxido-1,4,2-dioxaphosphinan-2-yl]-(L)-tyrosinate]	< 0.5	< 0.5	> 100	
COC(=O)[C@H](N)Cc1ccc(OP2(=O)CO[C@@H](Cn3ccc(N)nc3=O)CO2)cc1 (stereo partly drawn) [Compound 7, Methyl O-[(5S)-5-[(4-amino-2-oxopyrimidin-1(2H)-yl)methyl]-2-oxido-1,4,2-dioxaphosphinan-2-yl]-(D)-tyrosinate]	3.5	1.2	> 100	
CC(C)(C)NC(=O)[C@H](N)Cc1ccc(OP2(=O)CO[C@@H](Cn3ccc(N)nc3=O)CO2)cc1 (stereo partly drawn) [Compound 9, O-[(5S)-5-[(4-Amino-2-oxopyrimidin-1(2H)-yl)methyl]-2-oxido-1,4,2-dioxaphosphinan-2-yl]-N-tert-butyl-(D)-tyrosinamide]	28.9	3.85	> 100	
COC(=O)[C@@H](N)Cc1ccc(OP2(=O)CO[C@@H](Cn3cnc4c(N)ncnc43)CO2)cc1 (stereo partly drawn) [Compound 10, Methyl O-[(5S)-5-[(6-amino-9H-purin-9-yl)methyl]-2-oxido-1,4,2-dioxaphosphinan-2-yl]-(L)-tyrosinate]	< 0.5	< 0.5	> 100	
COC(=O)[C@H](Cc1ccc(OP2(=O)CO[C@@H](Cn3cnc4c(N)ncnc43)CO2)cc1)NC(=O)[C@@H](N)C(C)C (stereo partly drawn) [Compound 13, Methyl (L)-valyl-O-[(5S)-5-[(6-amino-9H-purin-9-yl)methyl]-2-oxido-1,4,2-dioxaphosphinan-2-yl]-(L)-tyrosinate]	< 0.5	< 0.5	> 100	
CC(C)CNC(=O)[C@@H](N)Cc1ccc(OP(=O)(O)CO[C@H](CO)Cn2cnc3c(N)ncnc32)cc1 [Compound 28, O-[([[(2S)-1-(6-Amino-9H-purin-9-yl)-3-hydroxypropan-2-yl]oxy]methyl)(hydroxy)phosphoryl]-N-(2-methylpropyl)-(L)-tyrosinamide]			> 100	
COC(=O)[C@H](COP1(=O)CO[C@@H](Cn2ccc(N)nc2=O)CO1)NC(=O)[C@@H](N)C(C)C (stereo partly drawn) [Val-Ser-OMe cHPMPC]				binding and transport by hPEPT1 (hPEPT1): tightly bound but not transported
